The values that follow are results of earlier work, collected in patent US8535699B2, “Insect-repelling resin composition and extended-release insect-repelling resin molded product obtained therefrom” (Sumika Life Tech, Limited, priority 2009, dated 2013).

The conditions of the series: at 20° C.

For the compound `CC(C)=CC1C(C(=O)OCc2cccc(Oc3ccccc3)c2)C1(C)C` (centres unmarked) [Phenothrin], the Vapour pressure is listed as 1.2×10^−6 mmHg.
As to `CCOP(=O)(OCC)OCC` [Triethyl phosphate], the Vapour pressure is given as 0.3 mmHg.
